Experiment [1] has as its target T1, N-type Ca^2+ channel in IMR-32 cells (Homo sapiens, UniProt Q00975).
T1 construct: host or cells: IMR-32 (differentiated with dibutyryl cAMP and bromodeoxyuridine)
The experiment can be described thus: N-type Ca2+ channel blockade in IMR-32 cells (fluorescent Ca2+ indicator Indo-1). The class given is cell-based. The note with it: 5 μM nitrendipine present; for inhibition at 1 µM: IMR-32, 1 μM; for inhibition at 10 µM: IMR-32, 10 μM.

Another experiment concerns DBA/2 mice. The experiment can be described thus: Audiogenic seizure (anticonvulsant) test in DBA/2 mice. The format is in vivo. Conditions: Mus musculus, intravenous, read-out: DBA/2 mice % Protection. How it is done:
A compound of the present invention was dissolved in water using 10% (weight/volume) Emulphor (GAF Corp., Wayne, N.J.) surfactant. Substances were administered by intravenous injection into the retro-orbital venous sinus. All testing was performed fifteen minutes or forty-five minutes after drug injection. All the male mice, 3-4 weeks old were obtained from Jackson Laboratories Bar Harbour, Me. Immediately before anticonvulsant testing, mice were placed upon a wire mesh, four inches square suspended from a steel rod. The square was slowly inserted through 180 degree and mice observed for thirty seconds. Any mouse falling from the wire mesh was scored as ataxia.
Mice were placed into an enclosed acrylic plastic chamber (21 cm height, approximately 30 cm diameter) with a high-frequency speaker (4 cm diameter) in the center of the top lid. An audio signal generator (Protek model B-810) was used to produe a continuous sinusoidal tone that was swept linearly in frequency between 8 kHz and 16 kHz once each 10 msec. The average sound pressure level (SPL) during stimulation was approximately 100 dB at the floor of the chamber. Mice were placed within the chamber and allowed to acclimatize for one minute. DBA/2 mice in the vehicle-treated group responded to the sound stimulus (applied until tonic extension occurred, or for a maximum of sixty seconds) with a characteristic seizure sequence consisting of wild running followed by clonic seizures and later by tonic extension, and finally by respiratory arrest and death in 80% or more of the mice. In vehicle-treated mice, the entire sequence of seizures to respiratory arrest lasts approximately 15-20 seconds.
The incidence of all the seizure phases in the drug-treated and vehicle-treated mice was recorded, and the occurrence of tonic seizures were used for calculating anticonvulsant ED50 values by probit analysis. Mice were used only once for testing at each time and dose point.

“And” between values parts separate entries of the source, which are not always exact repeats. Equal values may be shown once.

One may read the inhibition as the change of the read-out against control, counted positive when it falls. Low values mean a weak effect, high ones a strong effect. For orientation: IC50 means the concentration that inhibits the measured activity by half. A lower IC50 goes with higher potency.

T1 sequence (Q00975 whole entry): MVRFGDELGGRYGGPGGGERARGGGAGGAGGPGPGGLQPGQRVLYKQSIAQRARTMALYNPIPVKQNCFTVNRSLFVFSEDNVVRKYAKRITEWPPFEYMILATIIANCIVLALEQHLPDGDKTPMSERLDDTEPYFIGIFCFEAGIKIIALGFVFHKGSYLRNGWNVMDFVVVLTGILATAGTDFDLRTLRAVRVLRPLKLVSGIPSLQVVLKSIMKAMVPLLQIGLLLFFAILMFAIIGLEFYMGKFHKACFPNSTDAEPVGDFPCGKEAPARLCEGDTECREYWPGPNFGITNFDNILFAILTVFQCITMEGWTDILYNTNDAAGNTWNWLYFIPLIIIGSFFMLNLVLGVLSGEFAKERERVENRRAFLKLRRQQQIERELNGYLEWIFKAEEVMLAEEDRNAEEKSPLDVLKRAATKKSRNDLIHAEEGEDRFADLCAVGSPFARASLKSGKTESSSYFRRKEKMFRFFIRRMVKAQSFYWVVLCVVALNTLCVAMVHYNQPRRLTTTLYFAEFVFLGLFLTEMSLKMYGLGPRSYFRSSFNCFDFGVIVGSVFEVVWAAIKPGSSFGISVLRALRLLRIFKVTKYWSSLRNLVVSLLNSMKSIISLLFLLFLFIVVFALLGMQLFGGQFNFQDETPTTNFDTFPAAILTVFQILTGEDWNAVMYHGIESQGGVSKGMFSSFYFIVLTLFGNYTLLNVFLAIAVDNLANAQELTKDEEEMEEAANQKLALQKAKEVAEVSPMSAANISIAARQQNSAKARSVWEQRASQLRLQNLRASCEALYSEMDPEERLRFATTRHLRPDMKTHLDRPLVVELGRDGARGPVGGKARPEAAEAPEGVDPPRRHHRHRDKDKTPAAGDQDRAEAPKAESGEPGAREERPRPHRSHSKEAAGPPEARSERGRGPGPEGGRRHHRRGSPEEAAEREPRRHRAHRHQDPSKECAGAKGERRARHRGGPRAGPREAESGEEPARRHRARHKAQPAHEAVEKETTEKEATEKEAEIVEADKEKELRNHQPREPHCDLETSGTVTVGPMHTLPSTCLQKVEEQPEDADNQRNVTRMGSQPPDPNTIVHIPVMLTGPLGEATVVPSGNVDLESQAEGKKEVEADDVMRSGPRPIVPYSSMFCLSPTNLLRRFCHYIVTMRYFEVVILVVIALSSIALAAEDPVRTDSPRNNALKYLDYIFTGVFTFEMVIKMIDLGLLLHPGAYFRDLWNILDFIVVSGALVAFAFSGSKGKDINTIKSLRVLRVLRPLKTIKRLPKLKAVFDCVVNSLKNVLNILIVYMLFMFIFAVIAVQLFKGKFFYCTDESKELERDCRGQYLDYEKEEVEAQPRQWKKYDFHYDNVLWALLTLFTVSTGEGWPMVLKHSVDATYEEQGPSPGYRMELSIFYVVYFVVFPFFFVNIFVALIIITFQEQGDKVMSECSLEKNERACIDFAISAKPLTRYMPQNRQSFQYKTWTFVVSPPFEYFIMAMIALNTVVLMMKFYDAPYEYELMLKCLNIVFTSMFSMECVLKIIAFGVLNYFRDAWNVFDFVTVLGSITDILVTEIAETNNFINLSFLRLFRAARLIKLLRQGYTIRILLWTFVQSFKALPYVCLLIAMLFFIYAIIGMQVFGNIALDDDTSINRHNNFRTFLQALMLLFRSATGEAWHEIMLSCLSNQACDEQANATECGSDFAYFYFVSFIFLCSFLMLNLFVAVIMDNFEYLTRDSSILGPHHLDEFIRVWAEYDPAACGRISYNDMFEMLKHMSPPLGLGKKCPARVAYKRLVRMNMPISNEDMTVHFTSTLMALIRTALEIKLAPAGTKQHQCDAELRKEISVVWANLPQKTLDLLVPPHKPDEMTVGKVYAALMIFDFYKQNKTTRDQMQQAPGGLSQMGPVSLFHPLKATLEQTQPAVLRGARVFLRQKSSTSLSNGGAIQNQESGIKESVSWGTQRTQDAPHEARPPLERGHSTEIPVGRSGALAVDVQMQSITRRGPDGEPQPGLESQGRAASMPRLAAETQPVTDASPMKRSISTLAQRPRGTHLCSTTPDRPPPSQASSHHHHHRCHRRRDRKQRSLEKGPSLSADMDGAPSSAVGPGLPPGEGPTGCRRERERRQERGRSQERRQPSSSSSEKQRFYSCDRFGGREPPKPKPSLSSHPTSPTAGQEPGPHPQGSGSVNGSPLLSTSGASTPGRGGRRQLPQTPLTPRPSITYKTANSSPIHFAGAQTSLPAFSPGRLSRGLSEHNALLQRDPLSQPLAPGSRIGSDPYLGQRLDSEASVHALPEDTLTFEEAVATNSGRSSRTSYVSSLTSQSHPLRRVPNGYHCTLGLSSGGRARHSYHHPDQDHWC

In experiment [1], `CC(C)=CCN(c1ccc(OCc2ccccc2)cc1)C1CCN(CCC(C)C)CC1` [Example 1, (4-Benzyloxy-phenyl)-(3-methyl-but-2-enyl)-[1-(3-methyl-butyl)-piperidin-4-yl]-amine] yielded an inhibition at 1 µM of 40% and an inhibition at 10 µM of 79%. For the same molecule, the responders at 30 mg/kg in the experiment with DBA/2 mice was found to be 100%.
In the case of `CC(C)=CCN(c1ccc(OCc2ccccc2)cc1)C1CCN(CCC(C)(C)C)CC1` [Example 2, (4-Benzyloxy-phenyl)-[1-(3,3-dimethyl-butyl)-piperidin-4-yl]-(3-methyl-but-2-enyl)-amine], in experiment [1], 1 µM produced 62% inhibition and the inhibition at 10 µM amounted to 93%. Besides, the responders at 10 mg/kg with DBA/2 mice amounted to 80%.
Regarding `CC(C)=CCN(c1ccc(OCc2ccccc2)cc1)C1CCN(Cc2ccc(O)cc2)CC1` [Example 5, 4-{4-[(4-Benzyloxy-phenyl)-(3-methyl-but-2-enyl)-amino]-piperidin-1-ylmethyl}-phenol], in experiment [1], 1 µM produced 47% inhibition and the inhibition at 10 µM stood at 100%. Also, the responders at 10 mg/kg with DBA/2 mice turned out to be 80%.
As to `CC(C)=CCN(c1ccc(OCc2ccccc2)cc1)C1CCN(Cc2ccc(N(C)C)cc2)CC1` [Example 6, (4-Benzyloxy-phenyl)-[1-(4-dimethylamino-benzyl)-piperidin-4-yl]-(3-methyl-but-2-enyl)-amine], in the experiment on DBA/2 mice, the responders at 10 mg/kg worked out at 100% and the responders at 30 mg/kg was 100%.
Turning to `CC(C)=CCN(c1ccc(OCc2ccccc2)cc1)C1CCN(Cc2ccc[nH]2)CC1` [Example 7, (4-Benzyloxy-phenyl)-(3-methyl-but-2-enyl)-[1-(1H-pyrrol-2-ylmethyl)-piperidin-4-yl]-amine], in the experiment with DBA/2 mice, the responders at 10 mg/kg is 100% and the responders at 30 mg/kg is 100%.
In experiment [1], `CC(C)=CCN(c1ccc(OCc2ccccc2)cc1)C1CCN(Cc2c[nH]cn2)CC1` [Example 8, (4-Benzyloxy-phenyl)-[1(1H-imidazol-4-ylmethyl)-piperidin-4-yl]-(3-methyl-but-2-enyl)-amine] came in with an inhibition at 1 µM of 16% and an inhibition at 10 µM of 71%. Also, the responders at 10 mg/kg in the experiment with DBA/2 mice worked out at 60%.
In experiment [1], `CC(C)=CCN(c1ccc(C(C)C)cc1)C1CCN(Cc2ccc[nH]2)CC1` [Example 33, (4-Isopropyl-phenyl)-(3-methyl-but-2-enyl)-[1-(1H-pyrrol-2-ylmethyl)-piperidin-4-yl]-amine] displayed an inhibition at 1 µM of 54% and an inhibition at 10 µM of 98%.
Regarding `CC(C)=CCN(c1ccc(OC(C)C)cc1)C1CCN(CCC(C)C)CC1` [Example 34, (4-Isopropoxy-phenyl)-(3-methyl-but-2-enyl)-[1-(3-methyl-butyl)-piperidin-4-yl]-amine], in experiment [1], testing at 1 µM gave an inhibition of 23% and 10 µM produced 76% inhibition.
Regarding `CC(C)=CCN(c1ccc(OC(C)C)cc1)C1CCN(Cc2ccc(F)cc2)CC1` [Example 35, [1-(4-Fluoro-benzyl)-piperidin-4-yl]-(4-isopropoxy-phenyl)-(3-methyl-but-2-enyl)-amine], 1 µM produced 37% inhibition in experiment [1].
With `CC(C)=CCN(c1ccc(OC(C)C)cc1)C1CCN(CCC(C)(C)C)CC1` [Example 36], in experiment [1], the inhibition at 1 µM is 26% and the inhibition at 10 µM stood at 74%.
The like results for `CC(C)=CCN(c1ccc(CCC(C)(C)C)cc1)C1CCN(CCC(C)C)CC1` [Example 37, [4-(3,3-Dimethyl-butyl)-phenyl]-(3-methyl-but-2-enyl)-[1-(3-methyl-butyl)-piperidin-4-yl]-amine] were, in that order, 31% and 92%.
For `CC(C)=CCN(c1ccc(CCC(C)(C)C)cc1)C1CCN(CCC(C)(C)C)CC1` [Example 38, [4-(3,3-Dimethyl-butyl)-phenyl]-[1-(3,3-dimethyl-butyl)-piperidin-4-yl]-(3-methyl-but-2-enyl)-amine], in experiment [1], testing at 1 µM gave an inhibition of 38% and the inhibition at 10 µM amounted to 83%.
With `CC(C)=CCN(c1ccc(CCC(C)(C)C)cc1)C1CCN(Cc2ccc(N(C)C)cc2)CC1` [Example 39, [1-(4-Dimethylamino-benzyl)-piperidin-4-yl]-[4-(3,3-dimethyl-butyl)-phenyl]-(3-methyl-but-2-enyl)-amine], the “IMR 32 % of Blockade @ 1 μM” value in experiment [1] (1 μM) is 85% and 60%.
In experiment [1], `CC(C)CCN1CCC(N(CCC(C)C)c2ccc(OCC3CCCCC3)cc2)CC1` [Example 40, (4-Cyclohexylmethoxy-phenyl)-(3-methyl-butyl)-[1-(3-methyl-butyl)-piperidin-4-yl]-amine] yielded an inhibition at 1 µM of 72%.
In turn, `CC(C)CCN(c1ccc(OCC2CCCCC2)cc1)C1CCN(CCC(C)O)CC1` (stereo not drawn) [Example 41, 4-{4-[(4-Cyclohexylmethoxy-phenyl)-(3-methyl-butyl)-amino]-piperidin-1-yl}-butan-2-ol] showed an IC50 in experiment [1] of 1.5 µM.
In experiment [1], `CC(C)CCN(c1ccc(OCC2CCCCC2)cc1)C1CCN(CCC(C)(C)C)CC1` [Example 42, (4-Cyclohexylmethoxy-phenyl)-[1-(3,3-dimethyl-butyl)-piperidin-4-yl]-(3-methyl-butyl)-amine] had an inhibition at 1 µM of 60% and an inhibition at 10 µM of 81%.
In experiment [1], `CC(C)CCN(c1ccc(OCc2ccc(F)cc2)cc1)C1CCN(CCC(C)(C)C)CC1` [Example 43, [1-(3,3-Dimethyl-butyl)-piperidin-4-yl]-[4-(4-fluoro-benzyloxy)-phenyl]-(3-methyl-butyl)-amine] registered an inhibition at 1 µM of 65% and an inhibition at 10 µM of 99%.
The like results for `CC(C)=CCN(c1ccc(C(C)C)cc1)C1CCN(C(=O)[C@@H](O)CC(C)C)CC1` [Example 45, (S)-2-Hydroxy-1-{4-[(4-isopropyl-phenyl)-(3-methyl-but-2-enyl)-arnino]-piperidin-1-yl}-4-methyl-pentan-1-one] were, in that order, 28% and 85%.
On to `CC(C)=CCN(c1cccc(OCc2ccccc2)c1)C1CCN(CCC(C)(C)C)CC1` [Example 46, (3-Benzyloxy-phenyl)-[1-(3,3-dimethyl-butyl)-piperidin-4-yl]-(3-methyl-but-2-enyl)-amine], for which, in experiment [1], the inhibition at 1 µM worked out at 55% and at 10 µM the inhibition was 98%.
`CC(C)=CCN(c1ccc(CCC(C)(C)C)cc1)C1CCN(Cc2ccc[nH]2)CC1` [Example 47, [4-(3,3-Dimethyl-butyl)-phenyl]-(3-methyl-but-2-enyl)-[1-(1H-pyrrol-2-ylmethyl)-piperidin-4-yl]-amine] came in with an IC50 in experiment [1] of 0.9 µM.
In experiment [1], `CC(C)=CCN(c1ccc(OCc2ccccc2)cc1)C1CCCN(Cc2ccccc2)C1` (stereo not drawn) [Example 49, (4-Benzyloxy-phenyl)-(1-benzyl-piperidin-3-yl)-(3-methyl-but-2-enyl)-amine] returned an IC50 of 1.2 µM.
On to `CC(C)=CCN(c1ccc(OCc2ccccc2)cc1)C1CCCN(Cc2ccc(C(C)(C)C)cc2)C1` (stereo not drawn) [Example 50, (4-Benzyloxy-phenyl)-[1-(4-tert-butyl-benzyl)-piperidin-3-yl]-(3-methyl-but-2-enyl)-amine], for which, in experiment [1], 1 µM produced 86% inhibition and at 10 µM the inhibition was 96%.

Values taken from US6251919A, “Heterocyclic substituted aniline calcium channel blockers” (Warner-Lambert, priority 1999, dated 2001).
